Measured values from EP0453247A2, “Anti-viral compounds” (THE WELLCOME FOUNDATION LIMITED, priority 1990, dated 1991).

Tests used:
[1] = Cell growth inhibition assay (MTT uptake); format: cell-based; settings: monkey, Vero cells, 50% inhibition of cell viability at 96 hours, read-out: Toxicity CCID50(Vero)
Experimental: Cell toxicity is assessed in a cell growth inhibition assay. Subconfluent cultures of Vero cells grown on 96-well microtiter dishes are exposed to different dilutions of drug, and cell viability determined daily on replicate cultures using uptake of a tetrazolium dye (MTT). The concentration required for a 50% inhibition of cell vaibility at 96 hours is termed CCID₅₀.

VZV = VZV plaque reduction assay; format: cell-based; settings: Human alphaherpesvirus 3; plaque reduction in monolayers of MRC5 or Detroit 532 cells; read-out: VZV 1C50
Experimental: Antiviral testing against VZV was determined by measuring the ability of the compound to reverse the cytophathic effect of VZV infection.
VZV is assayed in monolayers of either MRC5 cells (human embryonic lung) or Detroit 532 cells (human foreskin fibroblasts) in multiwell trays. Activity of compounds is determined in the plaque reduction assay, in which a cell monolayer is infected with a suspension of VZV. Plaque numbers of each concentration are expressed as percentage of the control and a dose-response curve is drawn. From this curve the 50% inhibitory concentration (IC₅₀) is estimated.

For C#Cc1cn([C@@H]2O[C@H](CO)[C@@H](O)[C@H]2F)c(=O)nc1N [2'-Deoxy-5-ethynyl-2'-fluorocytidine, 2′-Deoxy-5-ethynyl-2′fluorocytidine], the CC50 at 96 h [1] was > 500 µM and the IC50 (VZV) was 5.3 µM.
C#Cc1cn([C@@H]2O[C@H](CO)[C@@H](O)[C@H]2F)c(=O)[nH]c1=O [2'-Deoxy-5-ethynyl-2'-fluorouridine, 2′-Deoxy-5-ethynyl-2′-fluoro uridine] showed a CC50 at 96 h [1] of 156 µM and an IC50 (VZV) of 2.16 µM.
For CC#Cc1cn([C@@H]2O[C@H](CO)[C@@H](O)[C@H]2F)c(=O)[nH]c1=O [2'-Deoxy-2'-fluoro-5-prop-1-ynyluridine, 2′-Deoxy-2′-fluoro-5-prop-1-ynyluridine], the CC50 at 96 h [1] was > 500 µM and the IC50 (VZV) was 2.6 µM.
With CC#Cc1cn([C@@H]2O[C@H](CO)[C@@H](O)[C@H]2F)c(=O)nc1N [2'-Deoxy-2'-fluoro-5-prop-1-ynylcytidine, 2′-Deoxy-2′-fluoro-5-prop-1-ynylcytidine] the CC50 at 96 h [1] was > 500 µM and the IC50 (VZV) was 2.3 µM.
